In US20180043011A1, “PI3-Kinase Inhibition and LAG-3 Checkpoint blockade as a Combination Therapy for Cancer” (Wisconsin Alumni Research Foundation, priority 2016, published 2018):

What was measured:
[1] = test system: SSX2 mouse sarcoma cell line; test: Cancer cell growth in vitro (images after three days); assay type: cell-based; settings: 200 nM BEZ235; three days after plating; 100,000 cells per flask
Procedure: An SSX2 mouse sarcoma cell line (described in Rekoske et al., Cancer Immunol Res August 2015 3; 946) was split and 100,000 cells plated into each of two […] flasks. Cells were grown in RPMI-1640, 5% FCS, 200 U/mL Pen/Strep, 50 μM β-MeOH with or without 200 nM BEZ235 PI3-Kinase inhibitor. FIG. 2 left, mouse sarcoma cell line grown in normal media three days after plating; shown at […] and 10× and right, sarcoma cells from the same split plated with the same number of cells/cm^2 and grown in media containing the pan-PI3K inhibitor BEZ235.

[2] = test system: activated (CD137+) CD8+ T cells; test: In vitro stimulation of splenocytes, surface expression of LAG-3 and PD1 by flow cytometry; assay type: cell-based, mouse; settings: 200nM BEZ235; WT (CD3/28 beads) or OT1 (SIINFEKL peptide) splenocytes; 24 h
Procedure: FIG. 1A depicts WT (top) and OT1 (bottom) splenocytes stimulated with either CD3/28 beads or SIINFEKL peptide respectively, with/without PI3K inhibition and assayed for surface expression of LAG-3 (left graphs) or PD1 (right graphs) on activated (CD137+) CD8+ T cells at 24 h. FIG. 1B depicts a representative OT1 sample showing levels of LAG-3 and PD1 on CD8+ T cells upon in vitro SIINFEKL stimulation in the presence of a PI3K inhibitor. (* denotes a p-value <0.05, two way Mann-Whitney test) FIG. 1C depicts WT splenocytes stimulated with CD3/28 beads with/without PI3K inhibition and assayed for intracellular expression of cytokines in CD8+ T cells.
Splenocytes from either OT-1 or wild type (WT) C57BL/6J mice were cultured in RPMI-1640, 10% FCS, 200U/mL Pen/Strep, 1% NaPyr, 1% HEPES, 50 μM β-MeOH and 2 μg/mL SIINFEKL peptide (OT1 cells) or CD3 and CD28 antibody coated latex beads (WT cells) with or without 200nM BEZ235 PI3-Kinase inhibitor (Selleckchem, Catalog No. S1009).
(* denotes a p-value <0.05, two way Mann-Whitney test).

Cn1c(=O)n(-c2ccc(C(C)(C)C#N)cc2)c2c3cc(-c4cnc5ccccc5c4)ccc3ncc21 [BEZ235]
cell growth [1]: inhibited cell growth | surface expression of LAG-3 on CD8+ T cells [2]: increased expression of LAG-3 | surface expression of PD-1 on CD8+ T cells [2]: reduced expression of PD-1
